Laboratory results published in PubChem BioAssay AID330 (DTP/NCI, 2004).
Where “and” joins values, the source holds several entries; their conditions need not be identical. Identical values can stand only once. Inconclusive results and toxic doses are left out. The calls were made as follows: active = survival T/C of 150% or more; inactive = T/C below 125% in these data.

Test system: P388 leukemia ip, CD2F1 mice, survival T/C
Experiment: NCI In Vivo Anticancer Drug Screen. Data for tumor model P388 Leukemia (intraperitoneal) in CD2F1 (CDF1) mice
Settings: endpoint: median survival time, higher = longer survival
Method in brief: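 Mice carrying the transplanted tumor received test compound or vehicle. Survival was recorded in each group, and the value is the treated-group measurement divided by that of the vehicle-treated control group.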

[1] = dose: 60.0 mg/kg/injection, schedule: Q01DX005 (ip), vehicle: saline with Tween-80
[2] = dose: 120.0 mg/kg/injection, schedule: Q01DX005 (ip), vehicle: saline with Tween-80
[3] = dose: 240.0 mg/kg/injection, schedule: Q01DX005 (ip), vehicle: saline with Tween-80
[4] = dose: 25.0 mg/kg/injection, schedule: Q01DX005 (ip), vehicle: water
[5] = dose: 50.0 mg/kg/injection, schedule: Q01DX005 (ip), vehicle: water
[6] = dose: 100.0 mg/kg/injection, schedule: Q01DX005 (ip), vehicle: water
[7] = dose: 200.0 mg/kg/injection, schedule: Q01DX005 (ip), vehicle: water
[8] = dose: 50.0 mg/kg/injection, schedule: Q01DX009 (ip), vehicle: saline with Tween-80
[9] = dose: 100.0 mg/kg/injection, schedule: Q01DX009 (ip), vehicle: saline with Tween-80
[10] = dose: 200.0 mg/kg/injection, schedule: Q01DX009 (ip), vehicle: saline with Tween-80
[11] = dose: 60.0 mg/kg/injection, schedule: Q01DX005 (ip), vehicle: Klucel (hydroxypropylcellulose) (HPC)
[12] = dose: 240.0 mg/kg/injection, schedule: Q01DX005 (ip), vehicle: Klucel (hydroxypropylcellulose) (HPC)
[13] = dose: 50.0 mg/kg/injection, schedule: Q01DX005 (ip), vehicle: saline with Tween-80
[14] = dose: 100.0 mg/kg/injection, schedule: Q01DX005 (ip), vehicle: saline with Tween-80
[15] = dose: 200.0 mg/kg/injection, schedule: Q01DX005 (ip), vehicle: saline with Tween-80
[16] = dose: 50.0 mg/kg/injection, schedule: Q01DX009 (ip), vehicle: saline
[17] = dose: 100.0 mg/kg/injection, schedule: Q01DX009 (ip), vehicle: saline

Measured: T/C

O=S1(=O)c2ccccc2N(c2ccccc2)c2nnnn21
inactive: [1] 88 % of control | [2] 96 % of control | [3] 99 % of control

CCCCSc1nn(CCC#N)c(=O)[nH]c1=O
inactive: [4] 98 % of control | [5] 100 % of control | [6] 103 % of control | [7] 100 % of control

Cc1oc(-c2ccccc2F)nc1C(N)=O
inactive: [8] 96 % of control | [9] 95 % of control | [10] 91 % of control

c1csc(-c2cc(-c3cc(-c4cccs4)[nH]n3)n[nH]2)c1
inactive: [11] 102 % of control | dose: 120.0 mg/kg/injection, schedule: Q01DX005 (ip), vehicle: Klucel (hydroxypropylcellulose) (HPC) 96 % of control | [12] 90 % of control

Cc1nnc(NC/C=C/c2ccccc2)s1
inactive: [1] 100 % of control | [2] 96 % of control | [3] 95 % of control

O=C(NC(Cc1ccc(Cl)cc1)C(=O)O)c1cccc(Br)c1 (configuration not stated)
inactive: dose: 50.0 mg/kg/injection, schedule: Q01DX005 (ip), vehicle: Klucel (hydroxypropylcellulose) (HPC) 102 % of control | dose: 100.0 mg/kg/injection, schedule: Q01DX005 (ip), vehicle: Klucel (hydroxypropylcellulose) (HPC) 100 % of control | dose: 200.0 mg/kg/injection, schedule: Q01DX005 (ip), vehicle: Klucel (hydroxypropylcellulose) (HPC) 110 % of control

O=C1c2ccccc2C(=O)c2sccc21
inactive: dose: 1.56 mg/kg/injection, schedule: Q01DX009 (ip), vehicle: saline with Tween-80 98 % of control | dose: 3.13 mg/kg/injection, schedule: Q01DX009 (ip), vehicle: saline with Tween-80 105 % of control | dose: 6.25 mg/kg/injection, schedule: Q01DX009 (ip), vehicle: saline with Tween-80 103 % of control | dose: 12.5 mg/kg/injection, schedule: Q01DX009 (ip), vehicle: saline with Tween-80 99 % of control | dose: 25.0 mg/kg/injection, schedule: Q01DX009 (ip), vehicle: saline with Tween-80 97 % of control | [9] 88 % of control

CS(=O)(=O)OC1C(O)C(n2cnc3c(N)ncnc32)C(O)C(OS(C)(=O)=O)C1OS(C)(=O)=O (configuration not stated)
inactive: [1] 98 % of control | [2] 95 % of control | [3] 96 % of control

CSc1nc(COC(=O)NC(C)C)c(COC(=O)NC(C)C)n1Cc1ccccc1
inactive: dose: 12.5 mg/kg/injection, schedule: Q01DX005 (ip), vehicle: saline with Tween-80 98 % of control | dose: 25.0 mg/kg/injection, schedule: Q01DX005 (ip), vehicle: saline with Tween-80 101 % of control | [13] 100 % of control and 110 % of control | [14] 98 % of control and 111 % of control | [15] 116 % of control

Cc1c2c(cn1C)NC(=O)CN=C2c1ccccc1
inactive: [8] 105 % of control | [9] 116 % of control | [10] 99 % of control

CN1C(=O)Cn2c(nn(Cc3ccccc3)c(=O)c2=O)-c2cc(Cl)ccc21
inactive: dose: 100.0 mg/kg/injection, schedule: Q01DX001 (ip), vehicle: Klucel (hydroxypropylcellulose) (HPC) 96 % of control | dose: 200.0 mg/kg/injection, schedule: Q01DX001 (ip), vehicle: Klucel (hydroxypropylcellulose) (HPC) 101 % of control | dose: 400.0 mg/kg/injection, schedule: Q01DX001 (ip), vehicle: Klucel (hydroxypropylcellulose) (HPC) 99 % of control

CC(O)(CCO)CCO
inactive: [4] 98 % of control | [5] 100 % of control | [6] 98 % of control | [7] 99 % of control | dose: 400.0 mg/kg/injection, schedule: Q01DX005 (ip), vehicle: water 99 % of control

CCCSC(SCCC)C1OC(c2ccccc2)OC2COC(c3ccccc3)OC21 (configuration not stated)
inactive: dose: 50.0 mg/kg/injection, schedule: Q01DX005 (ip), vehicle: Klucel + Tween-80 90 % of control | dose: 100.0 mg/kg/injection, schedule: Q01DX005 (ip), vehicle: Klucel + Tween-80 87 % of control | dose: 200.0 mg/kg/injection, schedule: Q01DX005 (ip), vehicle: Klucel + Tween-80 87 % of control

O=C(O)c1ccc(OCc2ccccc2)cc1
inactive: [16] 93 % of control | [17] 93 % of control

CNC(=O)O[C@H]1CC[C@@]2(C)C(=CC[C@H]3[C@@H]4CC[C@H]([C@H](C)CCCC(C)C)[C@@]4(C)CC[C@@H]32)C1
inactive: [13] 100 % of control | [14] 96 % of control | [15] 100 % of control

COc1c(O)c(O)c2c(c1O)C(=O)c1cc(C)cc(O)c1C2=O
inactive: dose: 5.0 mg/kg/injection, schedule: Q01DX009 (ip), vehicle: saline with Tween-80 99 % of control | dose: 10.0 mg/kg/injection, schedule: Q01DX009 (ip), vehicle: saline with Tween-80 103 % of control | dose: 20.0 mg/kg/injection, schedule: Q01DX009 (ip), vehicle: saline with Tween-80 105 % of control

CC(C)C12CCC(=O)C=C1CCCC2O (configuration not stated)
inactive: dose: 100.0 mg/kg/injection, schedule: Q01DX009 (ip), vehicle: saline sonified 90 % of control | dose: 200.0 mg/kg/injection, schedule: Q01DX009 (ip), vehicle: saline sonified 100 % of control | dose: 400.0 mg/kg/injection, schedule: Q01DX009 (ip), vehicle: saline sonified 109 % of control

CSc1nc(SC)c2c(C)cn(COCCOC(=O)c3ccccc3)c2n1
inactive: dose: 100.0 mg/kg/injection, schedule: Q01DX001 (ip), vehicle: saline with Tween-80 104 % of control | dose: 200.0 mg/kg/injection, schedule: Q01DX001 (ip), vehicle: saline with Tween-80 100 % of control | dose: 400.0 mg/kg/injection, schedule: Q01DX001 (ip), vehicle: saline with Tween-80 91 % of control

COC(=O)c1c(C)cc(OC(=O)c2c(C)cc(O)c(C=O)c2O)c(C)c1O
inactive: dose: 0.25 mg/kg/injection, schedule: Q01DX009 (ip), vehicle: saline with Tween-80 104 % of control | dose: 0.5 mg/kg/injection, schedule: Q01DX009 (ip), vehicle: saline with Tween-80 92 % of control | dose: 1.0 mg/kg/injection, schedule: Q01DX009 (ip), vehicle: saline with Tween-80 104 % of control | [16] 95 % of control | [17] 90 % of control | dose: 200.0 mg/kg/injection, schedule: Q01DX009 (ip), vehicle: saline 95 % of control

O=C1Nc2ccccc2C2CCCCC12 (configuration not stated)
inactive: [13] 107 % of control | [14] 102 % of control | [15] 98 % of control

Cn1c(N)c(C(=O)CCc2ccccc2)c(=O)n(C)c1=O
inactive: [13] 97 % of control | [14] 97 % of control | [15] 96 % of control

c1ccc([P+](Cc2ccc(C[P+](c3ccccc3)(c3ccccc3)c3ccccc3)cc2)(c2ccccc2)c2ccccc2)cc1
inactive: dose: 0.07 mg/kg/injection, schedule: Q01DX009 (ip), vehicle: saline sonified 90 % of control | dose: 0.15 mg/kg/injection, schedule: Q01DX009 (ip), vehicle: saline sonified 95 % of control | dose: 0.3 mg/kg/injection, schedule: Q01DX009 (ip), vehicle: saline sonified 90 % of control | dose: 0.6 mg/kg/injection, schedule: Q01DX009 (ip), vehicle: saline sonified 100 % of control

Cc1nn(C(=O)c2ccncc2)c(C)c1N=Nc1ccc(S(=O)(=O)Nc2ccccn2)cc1
inactive: dose: 50.0 mg/kg/injection, schedule: Q01DX009 (ip), vehicle: Klucel (hydroxypropylcellulose) (HPC) 100 % of control | dose: 100.0 mg/kg/injection, schedule: Q01DX009 (ip), vehicle: Klucel (hydroxypropylcellulose) (HPC) 91 % of control | dose: 200.0 mg/kg/injection, schedule: Q01DX009 (ip), vehicle: Klucel (hydroxypropylcellulose) (HPC) 92 % of control

CCN(CC)C(=NC(C)C)c1ccccc1
inactive: dose: 12.5 mg/kg/injection, schedule: Q01DX009 (ip), vehicle: saline 98 % of control | dose: 25.0 mg/kg/injection, schedule: Q01DX009 (ip), vehicle: saline 94 % of control

CC1=CC2(C)C=C(C)C3(OC(c4ccccc4)=C(C#N)C3=N2)C1=O (configuration not stated)
inactive: [13] 103 % of control | [14] 105 % of control | [15] 111 % of control

Cc1ccc(N=C2N=C(Nc3ccc(C)cn3)c3ccccc32)nc1
inactive: [8] 92 % of control | [9] 91 % of control | [10] 96 % of control

O=C(Nc1ccc(C(=O)c2ccccc2)cc1)Nc1ccc(Cl)c(Cl)c1
inactive: dose: 15.0 mg/kg/injection, schedule: Q01DX005 (ip), vehicle: Klucel (hydroxypropylcellulose) (HPC) 93 % of control | dose: 30.0 mg/kg/injection, schedule: Q01DX005 (ip), vehicle: Klucel (hydroxypropylcellulose) (HPC) 96 % of control | [11] 89 % of control | [12] 86 % of control
